Measured values taken from article PMC5429796, “Engineered P450 biocatalysts show improved activity and regio-promiscuity in aromatic nitration” (Scientific Reports, 2017).

How the values were obtained:
TxtE [1] = biological target: T1, TxtE (Streptomyces scabiei, UniProt C9ZDC6); experiment: UV-Vis difference spectroscopy (Type I shift) titration of Trp analogues to 1.5 µM purified P450 in 25 mM Tris-HCl, pH 8.0, fitted to Michaelis-Menten type equation; at least three repeats.; type: binding; conditions: n = 3
T1 construct: wild type, pET28b construct, Ni-NTA purified
T1 sequence (C9ZDC6 1-406): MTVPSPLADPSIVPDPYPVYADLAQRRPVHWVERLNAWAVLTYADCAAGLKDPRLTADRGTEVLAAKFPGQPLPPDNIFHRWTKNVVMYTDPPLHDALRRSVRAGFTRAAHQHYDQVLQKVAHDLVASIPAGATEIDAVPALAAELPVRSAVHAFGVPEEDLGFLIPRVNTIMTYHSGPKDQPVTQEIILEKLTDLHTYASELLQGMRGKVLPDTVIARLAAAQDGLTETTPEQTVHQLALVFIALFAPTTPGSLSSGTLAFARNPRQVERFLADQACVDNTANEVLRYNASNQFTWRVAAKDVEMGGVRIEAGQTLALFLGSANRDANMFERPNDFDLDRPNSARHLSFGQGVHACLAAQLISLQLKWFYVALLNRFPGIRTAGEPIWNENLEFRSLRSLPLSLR
Description: (§1) The ferric heme of enzymes was then saturated by bubbling carbon monoxide (Airgas) and the spectra of the saturated enzyme solutions were recorded. Sodium dithionite solution (30 μL, 0.5 M) was then added to reduce ferric ion, and reduced spectra were taken subsequently. CO reduced difference spectra of all P450s were created by […]. Data were further analyzed by Excel. […] The changes in absorbance (ΔA) were determined by subtracting the absorbance at ~420 nm from that at ~390 nm. Data were then fitted to the equation of ΔA = ΔAmax[L]/(Kd + [L]) using GraphPad Prism 4.
(§2) in 25 mM Tris-HCl, pH 8.0. All experiments were repeated at least three times. Data
(§3) were fitted to the Michaelis-Menten equation.

TxtE [2] = biological target: T2, TxtE (Streptomyces scabiei, UniProt C9ZDC6); type: biochemical, Streptomyces scabies; design: made in house; conditions: for nitrated a significant amount by TxtE: after 45 mins, 0.5 mM substrate, 1.5 µM P450
Description: (§4) The reactions were prepared as described previously and incubated at 20 °C, 300 rpm for 45 minutes. All experiments were repeated at least three times.
(§5) After centrifugation, 10 μl solutions were analyzed by HPLC. […] All reactions were independently repeated at least three times. In TTN and coupling efficiency studies, 0.5 µM P450s and 0.5 mM substrate were used. […] All experiments were performed at least in triplication.

TB14 [3] = biological target: T3, TB14 (UniProt C9ZDC6+P14779); experiment: Binding affinities of Trp analogues toward TB14 (spectral shift); conditions: for Kd: read-out: TB14 Kd, 1.5 µM enzyme, 25 mM Tris-HCl pH 8.0
T3 construct: BM3R: reductase domain of CYP102A1 (P450BM3); made in house; host or cells: E. coli BL21-GOLD (DE3), pET28b-TxtE-BM3R
Description: as §1
(§6) in 25 mM Tris-HCl, pH 8.0. All experiments were repeated at least three times. […]

TB14 [4] = biological target: T3, TB14; experiment: Nitration of Trp analogues by TB14 (HPLC, 45 min); type: biochemical; conditions: for nitrated a significant amount by TB14: after 45 mins, 0.5 mM substrate, 1.5 µM P450
Description: as §4, §5

TB14 [5] = biological target: T3, TB14; experiment: Scaled-up TB14 nitration of 4-Me-DL-Trp (Marfey's derivatization, NMR); type: biochemical; conditions: scaled-up reaction with 4-Me-DL-Trp
Description: The reactions in a 200-ml flask were incubated at 20 °C, 250 rpm overnight, and then terminated by 20 mL methanol or acidification to pH 1.0 with 6 M HCl. After centrifugation, the supernatants were concentrated in vacuo and then freeze-dried. The products were redissolved in 3 ml methanol for semi-preparation[22].
4-Me-Trp and nitrated 4-Me-Trp from enzyme reactions were reacted with Marfey’s reagent following manufacture manual (Thermo Scientific). Derivatized products were analyzed by LC-MS with A SHIMADZU Prominence UPLC system fitted with a Waters SymmetryShieldTM RP-C18 column (3.5 µm, 4.6 × 100 mm) and a Linear Ion Trap Quadrupole LC/MS/MS Mass Spectrometer system. The flow rate was 0.5 mL/min. The column was eluted with 90% solvent A (0.05 M triethylammonium acetate, pH 3.0), 10% solvent B (acetonitrile) for 2 min and then with a linear gradient of 10–50% solvent B for 60 min. The column was then cleaned by 50% solvent B for 5 min followed by a re-equilibration with 10% solvent B for 2 min. For MS detection, the turbo spray conditions used were: curtain gas: 30 psi; ion spray voltage: 5000 V; temperature: 550 °C; ion source gas 1: 30 psi; ion source gas 2: 20 psi.

TB14 [6] = biological target: T4, TB14 (UniProt C9ZDC6); experiment: Binding affinities of Trp analogues toward TB14 (spectral shift); conditions: 1.5 µM enzyme, 25 mM Tris-HCl pH 8.0
T4 construct: BM3R: reductase domain of CYP102A1 (P450BM3); made in house; host or cells: E. coli BL21-GOLD (DE3), pET28b-TxtE-BM3R
Description: as §1, §6

TxtE [7] = biological target: T2, TxtE; experiment: biochemical; type: binding, Streptomyces scabies; design: made in house; host or cells: E. coli BL21-GOLD (DE3), pET28b
Description: as §1, §2, §3

TB24 = experiment: UV-Vis difference spectroscopy (Type I shift, ΔA ~390 minus ~420 nm) titration of Trp to 1.5 µM purified P450 in 25 mM Tris-HCl, pH 8.0, hyperbolic fit; at least three repeats.; type: binding; conditions: n = 3
Description: (§7) We next determined coupling efficiency to evaluate the extent to which linker length and structural swapping may affect electron transfer compatibility during nitration reaction (Table 1). […] Additionally, we determined total turnover number (TTN) as nmol product per nmol P450 in all reactions (Table 1).
as §1

TB22 = experiment: as above; type: binding; conditions: n = 3
Description: as §7, §1

TB16 = experiment: as above; type: binding; conditions: n = 3
Description: as §7, §1

TB15 = experiment: as above; type: binding; conditions: n = 3
Description: as §7, §1

TB13 = experiment: as above; type: binding; conditions: n = 3
Description: as §7, §1

TB17 = experiment: as above; type: binding; conditions: n = 3
Description: as §7, §1

TB27 = experiment: as above; type: binding; conditions: n = 3
Description: as §7, §1

TB19 = experiment: as above; type: binding; conditions: n = 3
Description: as §7, §1

TB12 = experiment: as above; type: binding; conditions: n = 3
Description: as §7, §1

TB11 = experiment: as above; type: binding; conditions: n = 3
Description: as §7, §1

TB13S = experiment: as above; type: binding; conditions: n = 3
Description: as §7, §1

TB13-Q = experiment: as above; type: binding; conditions: n = 3
Description: as §7, §1

[8] = read-out: TxtE Kd (µM), TB14 Kd

## NC(Cc1c[nH]c2cccc(F)c12)C(=O)O (racemic) [4-F-Trp, 4-fluoro-DL-tryptophan]
TxtE [1]
  Kd: 190 µM

## Cc1cccc2[nH]cc(CC(N)C(=O)O)c12 (racemic) [4-Me-Trp, 4-Me-DL-Tryptophan]
TxtE [2]
  nitrated a significant amount by TxtE: nitrated a significant amount
TB14 [3]; from Table S1
  binding affinity, times higher than 4-F-DL-Trp: 13 times
TB14 [3]
  Kd: 14 ± 1 µM
TB14 [4]; 45 min, Fig. 3
  nitration by TB14, times favoured over 4-F-DL-Trp: about 8 times
TB14 [4]
  nitrated a significant amount by TB14: nitrated a significant amount

## Cc1cccc2[nH]cc(CC(N)C(=O)O)c12 (racemic) [4-Me-Trp, 4-methyl-DL-tryptophan]
TxtE [1]
  Kd: 10 µM

## Cc1ccc2[nH]cc(CC(N)C(=O)O)c2c1 (racemic) [5-Me-Trp, 5-methyl-DL-tryptophan]
TxtE [1]; [8]
  Kd: 35 µM

## COc1ccc2[nH]cc(CC(N)C(=O)O)c2c1 (racemic) [5-MeO-Trp, 5-methoxy-DL-tryptophan]
TxtE [1]; [8]
  Kd: 29 µM

## NC(Cc1c[nH]c2cc(F)ccc12)C(=O)O (racemic) [6-F-Trp, 6-fluoro-DL-tryptophan]
TxtE [1]
  Kd: 73 µM

## Cc1cccc2c(CC(N)C(=O)O)c[nH]c12 (racemic) [7-Me-Trp, 7-methyl-DL-tryptophan]
TxtE [1]; [8]
  Kd: 13 µM

## O=C(O)C1Cc2c([nH]c3ccccc23)CN1 (stereo not drawn) [2,3,4,9-Tetrahydro-1H-β-carboline-3-carboxynate]
TB14 [3]
  Kd: 730 ± 86 µM

## O=C(O)C1Cc2c([nH]c3ccccc23)CN1 (stereo not drawn) [2,3,4,9-tetrahydro-1H-β-carboline-3-carboxylate]
TxtE [1]; [8]
  Kd: 580 µM

## NC(Cc1c[nH]c2cccc(F)c12)C(=O)O (centres unmarked) [4-F-Trp]
TB14 [3]
  Kd: 180 ± 13 µM
TB14 [4]
  nitrated a significant amount by TB14: not

## Cc1cccc2[nH]cc(C[C@H](N)C(=O)O)c12 [4-Me-L-Trp]
TB14 [5]
  consumption of substrate in the TB14 reaction: ~ 85%

## N[C@@H](Cc1c[nH]c2ccc(F)cc12)C(=O)O [5-F-L-Trp, 5-fluoro-L-tryptophan]
TxtE [1]
  Kd: 84 µM

## N[C@@H](Cc1c[nH]c2ccc(F)cc12)C(=O)O [5-F-L-Trp]
TxtE [2]; 45 min
  substrate ranking in the TxtE reaction: best substrate of TxtE
TxtE [2]
  nitrated a significant amount by TxtE: nitrated a significant amount
TB14 [3]
  Kd: 78 ± 6 µM
TB14 [4]; 45 min
  substrate ranking in the TB14 reaction: comparable to Trp as the best
TB14 [4]
  nitrated a significant amount by TB14: nitrated a significant amount

## Cc1ccc2[nH]cc(CC(N)C(=O)O)c2c1 (centres unmarked) [5-Me-Trp]
TxtE [2]
  nitrated a significant amount by TxtE: nitrated a significant amount
TB14 [3]
  Kd: 30 ± 1 µM
TB14 [4]
  nitrated a significant amount by TB14: nitrated a significant amount

## COc1ccc2[nH]cc(CC(N)C(=O)O)c2c1 (centres unmarked) [5-MeO-Trp]
TB14 [3]
  Kd: 26 ± 2 µM
TB14 [4]
  nitrated a significant amount by TB14: not

## N[C@@H](Cc1c[nH]c2ccc(O)cc12)C(=O)O [5-OH-L-Trp, 5-hydroxy-L-tryptophan]
TxtE [1]; [8]
  Kd: 340 µM

## N[C@@H](Cc1c[nH]c2ccc(O)cc12)C(=O)O [5-OH-L-Trp]
TB14 [3]
  Kd: 450 ± 16 µM

## N[C@@H](Cc1c[nH]c2cc(F)ccc12)C(=O)O [6-F-Trp]
TxtE [2]
  nitrated a significant amount by TxtE: nitrated a significant amount
TB14 [3]
  Kd: 65 ± 5 µM
TB14 [4]
  nitrated a significant amount by TB14: nitrated a significant amount

## N[C@@H](Cc1c[nH]c2ncccc12)C(=O)O [7-Azatryptophan]
TB14 [6]
  Kd: 26 ± 1 µM
TxtE [7]
  Kd: 17 ± 1 µM

## Cc1cccc2c(CC(N)C(=O)O)c[nH]c12 (centres unmarked) [7-Me-Trp]
TB14 [3]
  Kd: 11 ± 1 µM
TB14 [4]
  nitrated a significant amount by TB14: not

## N[C@H](Cc1c[nH]c2ccccc12)C(=O)O [D-Trp, D-tryptophan]
TxtE [1]; [8]
  Kd: 430 µM

## N[C@H](Cc1c[nH]c2ccccc12)C(=O)O [D-Trp]
TB14 [3]
  Kd: 470 ± 25 µM

## O=C(O)C(=O)Cc1c[nH]c2ccccc12 [Indole-3-pyruvic acid]
TB14 [6]
  Kd: 480 ± 32 µM
TxtE [7]
  Kd: 390 ± 43 µM

## N[C@@H](Cc1c[nH]c2ccccc12)C(=O)O [L-Trp, L-tryptophan]
TB14 [6]
  Kd: 17 ± 1 µM
TxtE [7]
  Kd: 25 ± 1 µM

## N[C@H](CO)Cc1c[nH]c2ccccc12 [L-tryptophanol]
TB14 [3]
  Kd: 280 ± 43 µM
TxtE [1]; [8]
  Kd: 220 µM

## NCCc1c[nH]c2ccc(O)cc12 [Serotonin]
TB14 [6]
  Kd: 310 ± 39 µM
TxtE [7]
  Kd: 320 ± 31 µM

## N[C@@H](Cc1c[nH]c2ccccc12)C(=O)O [Trp, L-tryptophan]
TB24
  Kd: 14.9 ± 0.3 µM
TB22
  Kd: 27.1 ± 1.3 µM
TB16
  Kd: 18.9 ± 1 µM
TB15
  Kd: 21.4 ± 0.9 µM
TB13
  Kd: 21.3 ± 0.4 µM
TB17
  Kd: 15.5 ± 0.6 µM
TB27
  Kd: 16.2 ± 1.1 µM
TB19
  Kd: 16 ± 0.8 µM
TB12
  Kd: 22.3 ± 1.4 µM
TB11
  Kd: 16.2 ± 0.6 µM
TB13S
  Kd: 19.3 ± 0.6 µM
TB13-Q
  Kd: 21.5 ± 0.8 µM

## NCCc1c[nH]c2ccccc12 [Tryptamine]
TB14 [6]
  Kd: 60 ± 8 µM
TxtE [7]
  Kd: 68 ± 6 µM

## c1ccc2[nH]ccc2c1 [indole]
TB14 [3]
  interaction with TB14 in spectroscopic analysis (Type I spectral shift): no detectable level of interaction
TxtE [7]
  interaction with TxtE in spectroscopic analysis: no detectable level of interaction

## CC(N)(Cc1c[nH]c2ccccc12)C(=O)O (stereo not drawn) [α-Me-Trp]
TB14 [3]
  Kd: 95 ± 9 µM
TxtE [7]; read-out: TxtE Kd, 1.5 µM enzyme, 25 mM Tris-HCl pH 8.0
  Kd: 100 ± 4 µM
TB14 [4]
  nitrated a significant amount by TB14: not
